Source: US10729680B2, “5-substituted 2-(morpholin-4-yl)-1,7-naphthyridines” (BAYER PHARMA AKTIENGESELLSCHAFT, priority 2016, dated 2020)

Target: full-length human ATR protein (ATR/ATRIP) (Homo sapiens (Human), UniProt Q13535)
Assay: Binding Assay ATR (TR-FRET, tracer A displacement)
Details: displacement of fluorescent tracer A from GST-ATR/ATRIP
Text: To determine of binding activity of the test compounds, full-length human ATR protein was expressed and purified together with ATRIP as described above. Furthermore, a fluorescently labelled compound (tracer A as described above) was used as a tracer molecule. Detection of the binding event of the tracer was achieved by time-resolved fluorescence energy transfer (TR-FRET). We used an anti-GST-Terbium antibody (CisBio) that binds to the GST-tag at the N-terminus of ATR-kinase. Excitation of Terbium with 337 nm light results in emission of fluorescent light with 545 nm. In case a tetrameric complex has formed (antiGST-Tb+GST-ATR+Strp2-ATRIP+tracer), part of the energy will be transferred from the Terbium to the fluorophore that itself emits light of 570 nm. Displacement of the fluorescent tracer by a test compound leads to a reduction of the TR-FRET-signal.
For the assay 50 nl of a 100-fold concentrated solution of the test compound in DMSO was pipetted into a black low volume 384 well microtiter plate (MTP, Greiner Bio-One, Frickenhausen, Germany). To prepare the ATR-working solution, ATR/ATRIP stock solution was diluted in assay buffer [50 mM HEPES (pH 7.0), 10 mM MgCl2, 1 mM DTT, 0.01% (w/v) Igepal, 0.01% (w/v) BSA] to 4.2 nM protein concentration (concentration may vary from lot to lot of protein preparation). AntiGST-Tb antibody was diluted to 4.2 nM. The ATR-working solution was incubated for 30 min at 22° C. prior to dispensing to pre-form the complex of antiGST-Tb+GST-ATR+ATRIP. Then, 3 μl of the ATR-working solution were added to the test compound and the mixture was incubated for 10 min at 22° C. to allow pre-binding of the test compounds to ATR/ATRIP. Then, 2 μl of a 100 nM solution of tracer A in assay buffer were added to the ATR-working solution. The resulting mixture was incubated for 30 min at 22° C. The measurement of the TR-FRET signal was performed in a standard HTRF-compatible MTP reader instrument (e.g. BMG Pherastar) by recording the fluorescence emissions at 545 nm and 570 nm after excitation at 337-350 nm. The ratio between emission at 570 nm divided by emission at 545 nm was calculated to give the well ratio. The experimental data (well ratios) were normalised by the following way: positive control contained ATR-working solution plus tracer A solution (=0% inhibition), the negative control contained all components except GST-ATR/ATRIP (=100% inhibition). Usually the compounds were tested on the same MTP in 11 different concentrations in the range of 20 μM to 0.1 nM (20 μM, 5.9 μM, 1.7 μM, 0.51 μM, 0.15 μM, 44 nM, 13 nM, 3.8 nM, 1.1 nM, 0.33 nM and 0.1 nM). The dilution series were prepared separately before the assay on the level of the 100 fold concentrated solutions in DMSO by serial 1:3.4 dilutions in duplicate values for each concentration. IC50 values were calculated by a 4 parameter fit using standard software (GraphPad prism or equivalent).

Sequence of full-length human ATR protein (ATR/ATRIP) (Q13535 other isoform, or with tags, fused parts or gaps): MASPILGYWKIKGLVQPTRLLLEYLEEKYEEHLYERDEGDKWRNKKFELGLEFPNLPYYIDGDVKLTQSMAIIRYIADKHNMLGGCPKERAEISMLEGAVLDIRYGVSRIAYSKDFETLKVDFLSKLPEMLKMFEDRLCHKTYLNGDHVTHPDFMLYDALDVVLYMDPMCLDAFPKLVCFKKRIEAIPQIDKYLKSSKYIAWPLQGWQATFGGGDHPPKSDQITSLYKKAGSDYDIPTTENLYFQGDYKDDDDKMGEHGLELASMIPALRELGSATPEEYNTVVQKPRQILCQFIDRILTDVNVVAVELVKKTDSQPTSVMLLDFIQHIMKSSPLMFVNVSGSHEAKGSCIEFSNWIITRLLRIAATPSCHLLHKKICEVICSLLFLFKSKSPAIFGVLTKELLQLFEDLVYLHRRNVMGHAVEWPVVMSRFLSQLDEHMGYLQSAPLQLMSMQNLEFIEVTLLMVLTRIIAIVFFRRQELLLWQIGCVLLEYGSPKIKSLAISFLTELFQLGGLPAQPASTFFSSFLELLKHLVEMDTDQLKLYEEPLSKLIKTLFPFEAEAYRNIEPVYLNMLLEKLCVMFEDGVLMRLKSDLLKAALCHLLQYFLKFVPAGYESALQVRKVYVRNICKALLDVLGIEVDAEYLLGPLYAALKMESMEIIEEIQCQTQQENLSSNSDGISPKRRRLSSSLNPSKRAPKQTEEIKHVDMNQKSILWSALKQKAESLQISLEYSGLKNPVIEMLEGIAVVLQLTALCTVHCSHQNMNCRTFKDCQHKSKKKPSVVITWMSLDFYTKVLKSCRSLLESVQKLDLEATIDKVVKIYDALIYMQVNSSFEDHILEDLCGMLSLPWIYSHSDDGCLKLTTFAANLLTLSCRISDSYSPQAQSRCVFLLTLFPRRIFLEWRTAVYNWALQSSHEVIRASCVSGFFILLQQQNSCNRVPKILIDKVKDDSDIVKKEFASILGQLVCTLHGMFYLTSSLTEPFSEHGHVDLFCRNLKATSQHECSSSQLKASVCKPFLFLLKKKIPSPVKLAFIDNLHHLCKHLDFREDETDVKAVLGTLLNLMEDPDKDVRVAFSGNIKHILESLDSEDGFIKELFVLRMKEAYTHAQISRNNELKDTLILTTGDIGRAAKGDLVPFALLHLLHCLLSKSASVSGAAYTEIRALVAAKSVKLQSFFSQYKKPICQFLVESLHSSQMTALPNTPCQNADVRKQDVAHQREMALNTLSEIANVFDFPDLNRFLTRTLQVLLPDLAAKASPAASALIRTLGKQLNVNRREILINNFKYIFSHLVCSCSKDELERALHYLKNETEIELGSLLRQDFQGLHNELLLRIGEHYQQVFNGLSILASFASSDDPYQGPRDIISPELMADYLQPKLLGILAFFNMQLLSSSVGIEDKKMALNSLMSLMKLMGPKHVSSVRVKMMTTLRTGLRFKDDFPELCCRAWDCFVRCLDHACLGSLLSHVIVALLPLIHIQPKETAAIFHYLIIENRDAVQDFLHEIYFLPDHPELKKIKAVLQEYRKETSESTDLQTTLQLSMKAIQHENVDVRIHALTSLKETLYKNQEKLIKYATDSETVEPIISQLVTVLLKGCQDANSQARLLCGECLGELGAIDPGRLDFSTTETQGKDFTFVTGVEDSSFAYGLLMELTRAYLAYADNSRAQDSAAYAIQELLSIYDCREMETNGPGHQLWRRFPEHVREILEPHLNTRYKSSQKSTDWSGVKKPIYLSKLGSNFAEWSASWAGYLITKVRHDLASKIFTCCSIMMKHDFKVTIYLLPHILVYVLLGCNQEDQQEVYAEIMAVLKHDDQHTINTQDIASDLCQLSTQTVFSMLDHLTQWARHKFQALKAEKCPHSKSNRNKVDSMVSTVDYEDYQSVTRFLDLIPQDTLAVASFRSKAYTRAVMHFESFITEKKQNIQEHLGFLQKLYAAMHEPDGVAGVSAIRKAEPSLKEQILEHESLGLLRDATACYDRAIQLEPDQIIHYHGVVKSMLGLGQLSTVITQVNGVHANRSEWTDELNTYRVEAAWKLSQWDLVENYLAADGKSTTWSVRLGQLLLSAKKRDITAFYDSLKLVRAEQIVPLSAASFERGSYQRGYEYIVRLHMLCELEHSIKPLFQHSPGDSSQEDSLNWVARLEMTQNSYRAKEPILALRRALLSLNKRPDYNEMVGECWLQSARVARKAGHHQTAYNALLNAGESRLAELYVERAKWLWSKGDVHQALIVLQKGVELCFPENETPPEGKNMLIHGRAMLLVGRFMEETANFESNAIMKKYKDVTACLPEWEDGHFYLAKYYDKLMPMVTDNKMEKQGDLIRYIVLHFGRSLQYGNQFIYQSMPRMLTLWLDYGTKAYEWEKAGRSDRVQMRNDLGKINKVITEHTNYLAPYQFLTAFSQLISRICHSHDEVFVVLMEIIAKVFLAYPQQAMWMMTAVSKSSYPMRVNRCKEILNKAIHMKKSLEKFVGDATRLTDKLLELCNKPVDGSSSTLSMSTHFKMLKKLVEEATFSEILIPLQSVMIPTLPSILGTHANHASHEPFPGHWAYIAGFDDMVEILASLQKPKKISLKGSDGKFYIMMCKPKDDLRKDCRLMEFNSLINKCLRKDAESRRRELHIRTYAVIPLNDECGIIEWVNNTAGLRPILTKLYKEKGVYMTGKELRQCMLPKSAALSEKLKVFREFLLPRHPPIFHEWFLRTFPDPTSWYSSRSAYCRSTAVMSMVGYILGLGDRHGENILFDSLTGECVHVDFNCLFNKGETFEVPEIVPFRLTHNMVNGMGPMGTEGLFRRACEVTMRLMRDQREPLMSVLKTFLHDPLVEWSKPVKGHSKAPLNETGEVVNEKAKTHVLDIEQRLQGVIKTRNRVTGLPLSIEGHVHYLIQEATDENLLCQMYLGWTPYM
Sequence of full-length human ATR protein (ATR/ATRIP) (Q8WXE1 other isoform, or with tags, fused parts or gaps partner): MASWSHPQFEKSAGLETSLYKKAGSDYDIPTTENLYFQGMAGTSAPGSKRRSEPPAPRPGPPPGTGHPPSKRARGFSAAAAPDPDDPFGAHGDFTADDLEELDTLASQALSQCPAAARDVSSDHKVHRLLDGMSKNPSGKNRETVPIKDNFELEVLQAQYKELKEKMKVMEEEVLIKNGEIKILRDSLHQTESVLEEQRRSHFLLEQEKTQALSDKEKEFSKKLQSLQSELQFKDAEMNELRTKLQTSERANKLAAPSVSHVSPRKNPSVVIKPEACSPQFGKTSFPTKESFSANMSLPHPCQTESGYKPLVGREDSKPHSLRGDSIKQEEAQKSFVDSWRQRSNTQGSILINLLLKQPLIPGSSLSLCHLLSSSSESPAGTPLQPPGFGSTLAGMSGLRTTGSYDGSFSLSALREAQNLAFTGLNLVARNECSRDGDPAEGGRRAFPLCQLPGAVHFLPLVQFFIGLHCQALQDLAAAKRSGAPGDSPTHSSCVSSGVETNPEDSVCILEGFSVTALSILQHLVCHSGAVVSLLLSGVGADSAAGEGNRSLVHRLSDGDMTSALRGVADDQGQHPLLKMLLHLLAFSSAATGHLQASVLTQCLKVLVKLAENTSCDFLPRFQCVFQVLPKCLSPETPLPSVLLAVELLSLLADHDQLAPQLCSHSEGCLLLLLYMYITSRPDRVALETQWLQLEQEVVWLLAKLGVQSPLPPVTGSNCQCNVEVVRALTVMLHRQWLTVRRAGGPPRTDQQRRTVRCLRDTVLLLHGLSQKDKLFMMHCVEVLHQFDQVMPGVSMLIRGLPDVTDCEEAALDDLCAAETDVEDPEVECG

Structure (SMILES) | IC50 [nM]
Cc1cnc(-c2ccn[nH]2)c2nc(N3CCOC[C@H]3C)cc(P(C)(C)=O)c12 [Example 18, 4-(dimethylphosphoryl)-5-methyl-2-[(3R)-3-methylmorpholin-4-yl]-8-(1H-pyrazol-5-yl)-1,7-naphthyridine] | 66.4
Cc1cnc(-c2ccn[nH]2)c2nc(N3CCOC[C@H]3C)cc(P(C)(=O)OCC(C)C)c12 (stereo partly drawn) [Example 19, 2-methylpropyl methyl{5-methyl-2-[(3R)-3-methylmorpholin-4-yl]-8-(1H-pyrazol-5-yl)-1,7-naphthyridin-4-yl}phosphinate] | 34.9
Cc1cnc(-c2ccn[nH]2)c2nc(N3CCOC[C@H]3C)cc(-c3ccccc3)c12 [Example 20, 5-methyl-2-[(3R)-3-methylmorpholin-4-yl]-4-phenyl-8-(1H-pyrazol-5-yl)-1,7-naphthyridine] | 24.4
Cc1cnc(-c2ccn[nH]2)c2nc(N3CCOC[C@H]3C)cc(-c3ccc4c(c3)OCCO4)c12 [Example 21, 4-(2,3-dihydro-1,4-benzodioxin-6-yl)-5-methyl-2-[(3R)-3-methylmorpholin-4-yl]-8-(1H-pyrazol-5-yl)-1,7-naphthyridine] | 17.9
Cc1cnc(-c2ccn[nH]2)c2nc(N3CCOC[C@H]3C)cc(-c3ccc(Cl)cc3Cl)c12 [Example 22, 4-(2,4-dichlorophenyl)-5-methyl-2-[(3R)-3-methylmorpholin-4-yl]-8-(1H-pyrazol-5-yl)-1,7-naphthyridine] | 16.4
Cc1cnc(-c2ccn[nH]2)c2nc(N3CCOC[C@H]3C)cc(-c3cccc(CO)c3)c12 [Example 23, (3-{5-methyl-2-[(3R)-3-methylmorpholin-4-yl]-8-(1H-pyrazol-5-yl)-1,7-naphthyridin-4-yl}phenyl)methanol] | 14
Cc1cnc(-c2ccn[nH]2)c2nc(N3CCOC[C@H]3C)cc(-c3ccc(F)cc3)c12 [Example 24, 4-(4-fluorophenyl)-5-methyl-2-[(3R)-3-methylmorpholin-4-yl]-8-(1H-pyrazol-5-yl)-1,7-naphthyridine] | 34.7
COc1ccc(-c2cc(N3CCOC[C@H]3C)nc3c(-c4ccn[nH]4)ncc(C)c23)cc1 [Example 25, 4-(4-methoxyphenyl)-5-methyl-2-[(3R)-3-methylmorpholin-4-yl]-8-(1H-pyrazol-5-yl)-1,7-naphthyridine] | 25.4
Cc1cnc(-c2ccn[nH]2)c2nc(N3CCOC[C@H]3C)cc(-c3cc(F)cc(F)c3F)c12 [Example 26, 5-methyl-2-[(3R)-3-methylmorpholin-4-yl]-8-(1H-pyrazol-5-yl)-4-(2,3,5-trifluorophenyl)-1,7-naphthyridine] | 11.2
COc1ccc(-c2cc(N3CCOC[C@H]3C)nc3c(-c4ccn[nH]4)ncc(C)c23)cn1 [Example 27, 4-(6-methoxypyridin-3-yl)-5-methyl-2-[(3R)-3-methylmorpholin-4-yl]-8-(1H-pyrazol-5-yl)-1,7-naphthyridine] | 15.4
Cc1cnc(-c2ccn[nH]2)c2nc(N3CCOC[C@H]3C)cc(-c3ccc([S+](C)[O-])cc3)c12 (stereo partly drawn) [Example 29, 5-methyl-2-[(3R)-3-methylmorpholin-4-yl]-4-[4-(methylsulfinyl)phenyl]-8-(1H-pyrazol-5-yl)-1,7-naphthyridine] | 29.1
COc1cccc(-c2cc(N3CCOC[C@H]3C)nc3c(-c4ccn[nH]4)ncc(C)c23)c1F [Example 30, 4-(2-fluoro-3-methoxyphenyl)-5-methyl-2-[(3R)-3-methylmorpholin-4-yl]-8-(1H-pyrazol-5-yl)-1,7-naphthyridine] | 17.5
Cc1cnc(-c2ccn[nH]2)c2nc(N3CCOC[C@H]3C)cc(-c3ccccc3S(C)(=O)=O)c12 [Example 31, 5-methyl-2-[(3R)-3-methylmorpholin-4-yl]-4-[2-(methylsulfonyl)phenyl]-8-(1H-pyrazol-5-yl)-1,7-naphthyridine] | 47.2
Cc1cnc(-c2ccn[nH]2)c2nc(N3CCOC[C@H]3C)cc(-c3ccc(NS(C)(=O)=O)cc3)c12 [Example 32, N-(4-{5-methyl-2-[(3R)-3-methylmorpholin-4-yl]-8-(1H-pyrazol-5-yl)-1,7-naphthyridin-4-yl}phenyl)methanesulfonamide] | 4.31
